Patent US12006311B2, “Compounds for use in preventing or treating cancer” (FUNDACIÓ HOSPITAL UNIVERSITARI VALL D'HEBRON—INSTITUT DE …, priority 2018, dated 2024)

Legend:
[1] = test system: rhabdomyosarcoma cell line RH4; assay: cell growth test based on Methyl violet staining, RH4; settings: for anti-proliferative activity (cell growth in percentage with respect to vehicle-treated cells): 10 microM, 5 days of incubation, compared with Vismodegib (FIG. 1)
Protocol: (§1) FIG. 1 represents the effects in percentage with respect to vehicle-treated cells (DMSO) of five compounds according to formula (I) (IUCT-0460, IUCT-0462, IUCT-0463, IUCT-0467, IUCT-0469) and the reference compound Vismodegib on cell growth of RH4 rhabdomyosarcoma cells after 5 day incubation (mean+/−SD). All compounds were used at a concentration of 10 microM. Statistical analysis was performed using ANOVA. As statistical differences were observed (p=0), the pairwise comparison against the vehicle control was made using the Tukey test. Notation: ***=statistically-significant difference with a p-value<0.001, **=p-value<0.01 and *=p-value<0.05.
(§2) The measurements were taken using an in vitro test to measure cell growth based on Methyl violet staining after 5 days of incubation with the aforementioned drugs or control vehicle (DMSO). The procedure was carried out in a 96-well plate and cells were fixed for 30 minutes with 4% paraformaldehyde (PFA) at room temperature. After 3 washes with phosphate-buffered saline (PBS), cells were stained for 30 minutes at room temperature with Methyl violet (dilution 1/25 of a stock solution made with 1.5% w/v in PBS). After 5 washes, and the addition of acetic acid (15% in water), plates were read in a spectrophotometer at 590 nm. All conditions were tested in 8 independent wells and results expressed as a mean of all replicates (FIG. 1).
Additional measurements using the same procedure were made specifically for the compound IUCT-0463 to obtain a dose-response curve from 1 to 50 μM in the cell line RH4.

[2] = test system: rhabdomyosarcoma cell line RD; assay: cell growth test based on Methyl violet staining, RD; settings: RD cells; for anti-proliferative activity (cell growth in percentage with respect to the vehicle control): 10 microM, 5 days of incubation, compared with Vismodegib (FIG. 3)
Protocol: as §1, with “FIG. 3” for “FIG. 1”, “effects (in” for “effects in”, “to the vehicle control DMSO)” for “to vehicle-treated cells (DMSO)”, “of RD” for “of RH4”
as §2, with “3).” for “1).”
Additional measurements using the same procedure were made specifically for the compound IUCT-0463 to obtain a dose-response curve from 1 to 50 μM in the cell line RD.

[3] = test system: panel of cancer cell lines (RD, RH4, RH30, SKNBE2, SKNAS, U373MG, SKES1, TC71, PC3, HeLa, A549, MDA-MB231, HCT116); assay: cell growth test based on Methyl violet staining, panel of cancer cell lines; settings: panel of 13 cancer cell lines, 10 microM, 5 day incubation (FIG. 5)
Protocol: The cell lines analyzed are as follows: RD, RH4 and RH30 (rhabdomyosarcoma, RMS); SKNBE2 and SKNAS (neuroblastoma, NBL); U373MG (glioblastoma, GBL); SKES1 and TC71 (Ewing's sarcoma, EWING); PC3 (prostate cancer, PC); HeLa (epitheloid cervix carcinoma, ECC); A549 (lung cancer, LC); MDA-MB231 (breast cancer, BC) and HCT116 (colorectal cancer, CC). Statistical analysis was performed using ANOVA. As statistical differences were observed (p=0), the pairwise comparison against the vehicle control was made using the Tukey test. Notation: ***=statistically-significant difference with a p-value<0.001, **=p-value<0.01 and *=p-value<0.05.
With the compound showing a better cell growth reduction (IUCT-0463), additional tests were performed with the aim of studying the possible application of this family of compounds to other cancers. The procedure was carried out in a 96-well plate and cells were fixed for 30 minutes with 4% paraformaldehyde (PFA) at room temperature. After 3 washes with phosphate-buffered saline (PBS), cells were stained for 30 minutes at room temperature with Methyl violet (dilution 1/25 of a stock solution made with 1.5% w/v in PBS). After 5 washes, and the addition of acetic acid (15% in water), plates were read in a spectrophotometer at 590 nm.

| SMILES | anti-proliferative activity (cell growth in percentage with respect to vehicle-treated cells) [1] | anti-proliferative activity (cell growth in percentage with respect to the vehicle control) [2] | cell proliferation (cell growth in percentage with respect to the vehicle control) [3] | anti-tumor activity, dose-response curve ([1]; RH4 cells, dose-response curve from 1 to 50 μM, compared with Vismodegib (FIG. 2)) | anti-tumor activity, dose-response curve ([2]; dose-response curve from 1 to 50 μM, compared with Vismodegib (FIG. 4)) |
| --- | --- | --- | --- | --- | --- |
| COc1ccccc1-c1ccc(N2CCCC(NS(=O)(=O)c3ccc4c(c3)OCO4)C2=O)c(F)c1 (stereo not shown) [IUCT-0462, N-(1-(3-fluoro-2′-methoxy-[1,1′-biphenyl]-4-yl)-2-oxopiperidin-3-yl)benzo[d][1,3]dioxole-5-sulfonamide] | better anti-proliferative activity than the reference compound Vismodegib | better anti-proliferative activity than the reference compound Vismodegib |  |  |  |
| COc1ccccc1-c1ccc(N2CCCC(NS(=O)(=O)c3ccc(-c4ccccn4)s3)C2=O)c(F)c1 (stereo not shown) [IUCT-0463, N-(1-(3-fluoro-2′-methoxy-[1,1′-biphenyl]-4-yl)-2-oxopiperidin-3-yl)-5-(pyridin-2-yl)thiophene-2-sulfonamide] | better anti-proliferative activity than the reference compound Vismodegib | better anti-proliferative activity than the reference compound Vismodegib | remarkable rediction of cell proliferation in the majority of the cell lines analized | clear improvement of the anti-tumor activity when compared to the reference compound Vismodegib | clear improvement of the anti-tumor activity when compared to the reference compound Vismodegib |
| COc1ccccc1-c1ccc(N2CCCC(NS(=O)(=O)c3cc(Cl)c(Cl)s3)C2=O)c(F)c1 (stereo not shown) [IUCT-0460, 4,5-Dichloro-N-(1-(3-fluoro-2′-methoxy-[1,1′-biphenyl]-4-yl)-2-oxopiperidin-3-yl)thiophene-2-sulfonamide] | better anti-proliferative activity than the reference compound Vismodegib | better anti-proliferative activity than the reference compound Vismodegib |  |  |  |
| CCOC(=O)CN(C1CCCN(c2ccc(-c3ccccc3OC)cc2F)C1=O)S(=O)(=O)c1ccc(-c2ccccn2)s1 (stereo not shown) [IUCT-0469, Ethyl N-(1-(3-fluoro-2′-methoxy-[1,1′-biphenyl]-4-yl)-2-oxopiperidin-3-yl)-N-((5-(pyridin-2-yl)thiophen-2-yl)sulfonyl)glycinate] | better anti-proliferative activity than the reference compound Vismodegib | better anti-proliferative activity than the reference compound Vismodegib |  |  |  |
| COc1ccccc1-c1ccc(N2CCCC(N(CC(=O)N3CCOCC3)S(=O)(=O)c3ccc4c(c3)OCO4)C2=O)c(F)c1 (stereo not shown) [IUCT-0467, N-(1-(3-fluoro-2′-methoxy-[1,1′-biphenyl]-4-yl)-2-oxopiperidin-3-yl)-N-(2-morpholino-2-oxoethyl)benzo[d][1,3]dioxole-5-sulfonamide] | better anti-proliferative activity than the reference compound Vismodegib | better anti-proliferative activity than the reference compound Vismodegib |  |  |  |
